{"source": "patent US20170105920A1", "about": "“COSMETIC METHOD USING METAL PHTHALOCYANINE DERIVATIVE” (I'FORET CO., LTD., priority 2010, published 2017)", "assay": "Effectiveness test on suppression of fading, one week at 50° C., visual evaluation", "type": "physicochemical", "description": "Each beauty essence was kept for one week at 50° C. and its stability was visually evaluated compared to the beauty essence immediately after preparation.\nExpert testers judged the beauty essences tested on a scale of three as specified below: […]"}
{"smiles": "O=C([O-])CN(CCN(CC(=O)O)CC(=O)O)CC(=O)[O-].[Na+].[Na+]", "note": "[EDTA-2Na, sodium EDTA-2]", "values": [{"measurement": "Judgment of appearance (anti-fading)", "setting": "anti-fading component 0.10% in recipe of Example 4 (0.01% iron phthalocyanine tetracarboxylic acid)", "result": "Δ~X"}, {"measurement": "fading (in words)", "setting": "component blended by 0.1%", "result": "Marked fading"}, {"measurement": "fading (in words)", "setting": "component blended by 0.2%", "result": "some fading"}]}
{"smiles": "O=P(O)(O)O[C@H]1[C@H](OP(=O)(O)O)[C@@H](OP(=O)(O)O)[C@H](OP(=O)(O)O)[C@@H](OP(=O)(O)O)[C@H]1OP(=O)(O)O", "note": "[Phytic acid, phytic acid]", "values": [{"measurement": "fading (in words)", "setting": "component blended by 0.05%", "result": "hardly any fading"}, {"measurement": "fading (in words)", "setting": "component blended by 0.1%", "result": "hardly any fading"}]}
